# Article PMC3678964 (Journal of medicinal chemistry, 2012)
# Molecular target: T1, transmembrane domain-deleted rat FAAH (ΔTM rFAAH) (Rattus norvegicus, UniProt P97612)
# T1 sequence (P97612 30-579 limits assumed): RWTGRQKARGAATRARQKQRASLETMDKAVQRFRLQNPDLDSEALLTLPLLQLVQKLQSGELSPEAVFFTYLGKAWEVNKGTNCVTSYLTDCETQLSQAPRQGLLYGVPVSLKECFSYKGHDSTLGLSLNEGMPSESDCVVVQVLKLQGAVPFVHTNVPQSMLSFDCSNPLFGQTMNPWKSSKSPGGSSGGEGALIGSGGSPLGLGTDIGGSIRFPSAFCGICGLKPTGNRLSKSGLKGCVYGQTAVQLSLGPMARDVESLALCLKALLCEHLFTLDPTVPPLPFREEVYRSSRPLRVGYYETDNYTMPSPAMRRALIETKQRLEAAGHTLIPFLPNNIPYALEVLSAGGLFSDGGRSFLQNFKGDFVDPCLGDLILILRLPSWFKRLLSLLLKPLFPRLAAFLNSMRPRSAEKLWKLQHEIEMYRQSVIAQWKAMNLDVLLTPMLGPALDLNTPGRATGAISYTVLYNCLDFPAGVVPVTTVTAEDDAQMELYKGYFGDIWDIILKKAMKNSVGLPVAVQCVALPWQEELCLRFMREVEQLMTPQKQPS
# Settings: phenyl ring substitution of phenylheptyl template 11e
row,Structure (SMILES),increase in FAAH inhibitory potency relative to 11e
1,"O=S(=O)(F)CCCCCCCc1ccccc1OCc1ccccc1 [20c, 7-(2-Benzyloxyphenyl)heptanesulfonyl fluoride]",9-10 fold
2,"O=S(=O)(F)CCCCCCCc1cccc(O)c1 [21b, 7-(3-Hydroxyphenyl)heptanesulfonyl fluoride]",15- to 31 fold
3,"O=S(=O)(F)CCCCCCCc1ccccc1O [21c, 7-(2-Hydroxyphenyl)heptanesulfonyl fluoride]",15- to 31 fold
